# Source: BindingDB's records for doi:10.1111/cbdd.12812 (Yueyang Vocational Technical College, 2016)
# Molecular target: T1, Aromatase (Homo sapiens, UniProt P11511)
# T1 sequence (P11511 whole entry): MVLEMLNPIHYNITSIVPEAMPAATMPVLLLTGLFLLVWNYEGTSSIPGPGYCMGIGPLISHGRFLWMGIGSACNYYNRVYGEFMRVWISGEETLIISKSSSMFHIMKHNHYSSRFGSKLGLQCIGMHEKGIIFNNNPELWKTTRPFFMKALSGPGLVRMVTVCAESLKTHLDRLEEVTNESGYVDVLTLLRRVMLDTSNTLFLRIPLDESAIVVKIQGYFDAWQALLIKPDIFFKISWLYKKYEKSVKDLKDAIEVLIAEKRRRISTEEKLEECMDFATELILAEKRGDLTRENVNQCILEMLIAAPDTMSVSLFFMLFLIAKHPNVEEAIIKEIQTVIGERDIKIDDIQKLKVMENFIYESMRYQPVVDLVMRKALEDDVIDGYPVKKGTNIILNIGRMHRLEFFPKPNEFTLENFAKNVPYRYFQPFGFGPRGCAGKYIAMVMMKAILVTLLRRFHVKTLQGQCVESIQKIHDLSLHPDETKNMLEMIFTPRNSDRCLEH
# Test: Aromatase Inhibition Activity Assay
# Conditions: pH 7.5; 37 °C
# Method: Briefly, concentrated stock solutions of test compounds were prepared in acetonitrile. Hundred microliters of samples containing serial dilutions of test compounds (dilution factor of 3 between samples) and cofactor mixture (0.4 U/mL glucose-6-phosphate dehydrogenase; 16.2 μm NADP+; 825 μm MgCl2; 825 μm glucose-6- phosphate; 50 μm citrate buffer, pH 7.5) was prepared in a 96-well plate. […] The plate was covered and incubated for 30 min at 37 °C. Seventy-five microliters of 0.5 m Tris base was then added to stop the reaction, and the fluorescence of the formed de-methylated MFC was measured with a plate reader (Spectra Max Gemini; Molecular Devices, Sunnyvale, CA, USA).
row,SMILES,IC50 [nM]
1,"Cc1c(C(=O)c2nn3c(nc(=O)c4ccccc43)s2)c(=O)n(-c2ccccc2)n1C [2-[4-(1,2-Dihydro-1,5-dimethyl-2-phenyl-3-oxo-3H-pyrazol-4-yl]-1,3,4-thiazolo[3,2-a]-1,3-quinazolin-2-one (10b)]",3.9
2,"Cc1c(C(=O)c2sc(=N)sc2Nc2ccccc2)c(=O)n(-c2ccccc2)n1C [4-[4-(1,2-Dihydro-1,5-dimethyl-2-phenyl-3-oxo-3H-pyrazol-4-ylcarbonyl)]-5-phenylamino-1,3-dithiole-2-imine (7)]",4.6
3,"Cc1c(-c2csc(Cl)n2)c(=O)n(-c2ccccc2)n1C [2-Chloro-4-[4-(1,2-dihydro-1,5-dimethyl-2-phenyl-3-oxo-3H-pyrazol-4-yl)thiazole (26)]",3.3
4,"Cc1c(C(=O)CSC#N)c(=O)n(-c2ccccc2)n1C [1,2-Dihydro-1,5-dimethyl-2-phenyl-4-thiocyanatoacetyl-3H-pyrazol-3-one (2)]",6.7
5,"Cc1c(-c2csc(O)n2)c(=O)n(-c2ccccc2)n1C [2-Hydroxy-4-([4-(1,2-dihydro-1,5-dimethyl-2-phenyl-3-oxo-3H-pyrazol-4-yl)thiazole (25)]",3.5
